# Reference: patent US20230277630A1, “METHODS AND COMPOSITIONS FOR TREATING AMYOTROPHIC LATERAL SCLEROSIS” (Amylyx Pharmaceuticals, Inc., priority 2022, published 2023)
# Experiments:
# CYP2B6 mRNA = assay: Induction of CYP2B6 mRNA in human hepatocytes (qPCR); settings: controls: 1,000 μM phenobarbital, 10 μM flumazenil, 72 h
# Description: Plateable and inducible cryopreserved human hepatocytes were thawed and isolated in human hepatocyte thawing medium.
# All experiments were performed in triplicate.
# After induction treatment, CYP mRNA expression was measured by qPCR. Total RNA was isolated from the treated cells using the RNeasy® mini kit (Qiagen, Valencia, Calif., USA) and treated with RNase-free DNase (Qiagen) following the manufacturer's protocols. The concentration of RNA was determined using a Qubit® Fluorometer with a Qubit RNA HS assay kit (Invitrogen). cDNA was synthesized from up to 1 μg of the total RNA harvested from the cells using a QuantiTect® RT kit (Qiagen). Analysis of CYP gene expression by qPCR (Table 3) was performed using the LightCycler® 480 II System (Roche Diagnostics Corporation, Indianapolis, Ind., USA).
# Relative mRNA was expressed as the fold-increase calculated from the normalized mRNA level (2^−ΔΔCt) relative to vehicle control. The percentage of mRNA fold-increase relative to positive control was calculated using the following equation:
# % Induction relative to positive control=100×(mRNATA−mRNAvehicle)/(mRNApositive control−mRNAvehicle)
# human hepatocytes = assay: Cell viability after CYP induction treatment (MTS); settings: controls: 50 μM OME, 1,000 μM phenobarbital, 50 μM RIF, 10 μM flumazenil, 72 h
# Description: Plateable and inducible cryopreserved human hepatocytes were thawed and isolated in human hepatocyte thawing medium. […] After attachment (4 hours), the medium was changed to fresh hepatocyte culture medium for overnight cell recovery. […] A positive control (100 μM chlorpromazine) was treated in parallel. […] The absorbance of formazan, which is proportional to the number of viable cells, was measured spectrophotometrically using the CellTiter 96® AQueous One Solution Cell Proliferation Assay (MTS).
# After the CYP induction treatment, the cells were used for cell viability assay. The viability of cells (expressed as the percentage of MTS absorbance relative to vehicle control) was measured as described herein.
# CYP2C9 = CYP2C9 (Homo sapiens, UniProt P11712); assay: in vitro; settings: microsomes; for % of Control Enzyme Activity: 30 min, pH 7.4
# Chain of CYP2C9 (P11712 whole entry, canonical isoform): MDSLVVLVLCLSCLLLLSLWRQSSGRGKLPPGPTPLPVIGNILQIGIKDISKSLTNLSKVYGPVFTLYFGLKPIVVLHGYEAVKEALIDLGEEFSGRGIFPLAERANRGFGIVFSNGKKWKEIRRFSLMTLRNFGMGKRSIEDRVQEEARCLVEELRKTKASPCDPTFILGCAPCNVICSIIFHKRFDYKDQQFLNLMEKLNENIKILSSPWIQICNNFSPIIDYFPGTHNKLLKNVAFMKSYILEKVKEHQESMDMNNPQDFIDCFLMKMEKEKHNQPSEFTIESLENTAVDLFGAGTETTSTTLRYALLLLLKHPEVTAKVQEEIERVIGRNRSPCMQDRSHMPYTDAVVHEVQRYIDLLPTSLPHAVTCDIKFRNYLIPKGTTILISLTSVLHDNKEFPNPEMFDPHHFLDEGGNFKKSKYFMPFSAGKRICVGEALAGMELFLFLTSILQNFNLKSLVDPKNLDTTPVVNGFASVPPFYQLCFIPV
# Description: CYP TDI was evaluated by a 30-minute pre-incubation of the TA with HLM in the presence and absence of NADPH followed by the CYP enzyme activity assay. […] The total organic solvent content in the final incubation was less than 1% (DMSO ≤0.1%, other organic solvent ≤1%). The CYP reactions were initiated by adding an individual CYP probe substrate with (when NADPH was not added in the pre-incubation step) or without (when NADPH was added in the pre-incubation step) the addition of NADPH (1 mM). The reaction mixture was incubated at 37° C. for 10-30 minutes depending on the individual CYP isoform (Table 24). The reaction was terminated with ice-cold acetonitrile (ACN) containing an internal standard (IS, stable isotope-labeled CYP probe metabolite). Negative (vehicle) controls were conducted using the incubation mixture without the TA. Positive controls were performed in parallel using known CYP time-dependent inhibitors. […] The formation of individual CYP probe metabolites was determined by LC-MS/MS.
# The enzyme activity was expressed as the peak area ratio of CYP probe metabolite to IS, measured by LC-MS/MS.
# P-gp [1] = target: T1, P-gp (Homo sapiens, UniProt P08183); assay: P-gp IC50 assessment, bidirectional digoxin transport in C2BBe1 cells
# T1 sequence (P08183 whole entry): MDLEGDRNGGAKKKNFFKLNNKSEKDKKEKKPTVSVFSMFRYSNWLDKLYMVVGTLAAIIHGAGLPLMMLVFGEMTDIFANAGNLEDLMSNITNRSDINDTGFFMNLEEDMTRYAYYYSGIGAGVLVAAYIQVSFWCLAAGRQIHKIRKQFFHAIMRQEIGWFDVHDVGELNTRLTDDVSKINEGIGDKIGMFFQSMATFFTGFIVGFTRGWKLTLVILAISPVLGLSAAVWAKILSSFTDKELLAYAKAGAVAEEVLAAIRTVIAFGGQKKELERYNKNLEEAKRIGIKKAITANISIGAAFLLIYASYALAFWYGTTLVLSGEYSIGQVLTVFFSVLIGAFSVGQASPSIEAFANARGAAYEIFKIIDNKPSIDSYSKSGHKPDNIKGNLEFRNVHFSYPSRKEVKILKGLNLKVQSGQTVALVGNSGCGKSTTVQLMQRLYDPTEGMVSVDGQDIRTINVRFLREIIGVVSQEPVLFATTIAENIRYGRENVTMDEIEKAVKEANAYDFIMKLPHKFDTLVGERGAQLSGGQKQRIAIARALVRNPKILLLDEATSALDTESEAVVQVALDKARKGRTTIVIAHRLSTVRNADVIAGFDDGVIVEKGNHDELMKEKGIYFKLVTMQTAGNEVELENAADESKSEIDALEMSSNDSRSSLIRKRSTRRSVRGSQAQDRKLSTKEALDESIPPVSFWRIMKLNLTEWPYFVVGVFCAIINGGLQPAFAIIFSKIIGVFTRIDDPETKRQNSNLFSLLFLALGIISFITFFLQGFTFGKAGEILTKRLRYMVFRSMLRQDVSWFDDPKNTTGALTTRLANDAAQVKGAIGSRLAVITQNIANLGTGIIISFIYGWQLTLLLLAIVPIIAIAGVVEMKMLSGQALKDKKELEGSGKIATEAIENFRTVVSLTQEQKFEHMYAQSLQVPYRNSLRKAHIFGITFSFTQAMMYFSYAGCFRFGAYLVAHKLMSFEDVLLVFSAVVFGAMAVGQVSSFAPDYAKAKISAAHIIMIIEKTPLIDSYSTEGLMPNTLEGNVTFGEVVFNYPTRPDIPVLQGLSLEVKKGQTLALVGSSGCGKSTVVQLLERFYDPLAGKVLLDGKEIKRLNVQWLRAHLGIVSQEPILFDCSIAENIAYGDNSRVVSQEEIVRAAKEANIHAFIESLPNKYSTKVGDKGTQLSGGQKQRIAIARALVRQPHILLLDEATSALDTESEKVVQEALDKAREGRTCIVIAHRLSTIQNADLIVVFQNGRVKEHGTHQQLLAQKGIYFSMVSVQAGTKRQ
# Description: After 30 minutes, the pre-incubation solution was aspirated.
# P-gp [2] = target: T1, P-gp; assay: P-gp IC50 assessment, bidirectional digoxin transport in MDR1-MDCK cells
# [3] = pH 7.4, % of Control Enzyme Activity
smiles,measurement,setting,value
"CCC1(c2ccccc2)C(=O)NC(=O)NC1=O [Phenobarbital, phenobarbital]",CYP2B6 mRNA % Induction Relative to Positive Control,CYP2B6 mRNA; donor 1,100%
same,CYP2B6 mRNA Fold-increase (n = 3) Mean,CYP2B6 mRNA; donor 1,21.8 fold
same,CYP2B6 mRNA % Induction Relative to Positive Control,CYP2B6 mRNA; donor 2,100%
same,CYP2B6 mRNA Fold-increase (n = 3) Mean,CYP2B6 mRNA; donor 2,39.6 fold
same,CYP2B6 mRNA % Induction Relative to Positive Control,CYP2B6 mRNA; donor 3,100%
same,CYP2B6 mRNA Fold-increase (n = 3) Mean,CYP2B6 mRNA; donor 3,7.36 fold
same,% MTS Absorbance Relative to Vehicle Control,human hepatocytes; donor 1,97.7%
same,Formazan Absorbance (n = 6) Mean,human hepatocytes; donor 1,0.417
same,% MTS Absorbance Relative to Vehicle Control,human hepatocytes; donor 2,98.8%
same,Formazan Absorbance (n = 6) Mean,human hepatocytes; donor 2,0.504
same,% MTS Absorbance Relative to Vehicle Control,human hepatocytes; donor 3,108%
same,Formazan Absorbance (n = 6) Mean,human hepatocytes; donor 3,0.320
O=C(O)COc1ccc(C(=O)c2cccs2)c(Cl)c1Cl [Tienilic acid],% of Control Enzyme Activity,CYP2C9; 10 µM,11.7%
same,% of Control Enzyme Activity,CYP2C9; 30 µM,9.64%
same,"activity at 30 min, 10 µM",CYP2C9; [3],22.2%
same,"activity at 30 min, 30 µM",CYP2C9; [3],16.2%
"C/C=C/C[C@@H](C)C(=O)[C@H]1C(=O)N[C@@H](C(C)C)C(=O)N(C)CC(=O)N(C)[C@@H](CC(C)C)C(=O)N[C@@H](C(C)C)C(=O)N(C)[C@@H](CC(C)C)C(=O)N[C@@H](C)C(=O)N[C@H](C)C(=O)N(C)[C@@H](CC(C)C)C(=O)N(C)[C@@H](CC(C)C)C(=O)N(C)[C@@H](C(C)C)C(=O)N1C [valspodar, reference compound]","Percent Inhibition (P-gp, digoxin efflux)","P-gp [1]; C2BBe1 cells, 10 μM digoxin + TUDCA/PB Solution or 1 μM valspodar",99.3%
same,inhibition at 1 μM,"P-gp [1]; human, pH 7.4",99.3%
same,Percent Inhibition (P-gp),"P-gp [2]; 10 μM Digoxin + 1 μM Valspodar, MDR1-MDCK cells",99.9%
same,inhibition at 1 μM,"P-gp [2]; human, MDR1-MDCK cell monolayers on Transwell plates, pH 7.4, probe digoxin (10 μM)",99.9%
